Test results published in patent US9221756B2, “Pyrrole derivatives” (priority 2011, dated 2015).
Read-outs that look alike come from different tables or passages of the source.

Experiments:
pneumolysin = pneumolysin (Streptococcus pneumoniae serotype 2, UniProt Q04IN8); test: Inhibition of the haemolytic activity of pneumolysin (sheep erythrocytes); assay type: cell-based; details: class symbols of Table 1
[1] = Conversion of prodrug derivatives to active inhibitors in mouse plasma; assay type: in vitro ADME; details: 37° C., 10 μM start, prodrug remaining; for [ ] (μM) t0 min. Prodrug: 0 min; for [ ] (μM) t15 min. Prodrug: 15 min; for [ ] (μM) t30 min. Prodrug: 30 min; for [ ] (μM) t60 min. Prodrug: 60 min; for [ ] (μM) t120 min. Prodrug: 120 min
Experimental: The samples were then analysed by LC-MS/MS to obtain the amount of active compound appearing and prodrug derivative remaining over time. The mouse plasma assay system is considered to be a good model for human behaviour. Nevertheless data obtained in a human plasma assay system was obtained in some cases.
Prodrug derivatives were assessed in the mouse and human plasma stability assay at a concentration of 10 μM. Test compounds were diluted in DMSO to a final stock concentration of 10 mM. For the purpose of the assay, the stocks prepared were further diluted in DMSO to a concentration of 400 μM and […] were added to 195 μl of mouse or human plasma (pH 7.4) and then incubated at 37° C. The final concentration of DMSO in the plate was 2.5% (v/v). Reactions were terminated at 0, 15, 30, 60 and 120 min after incubation by adding 400 μl of acetonitrile containing 0.55 μM metoprolol and 1% (v/v) formic acid. The plate was then centrifuged at 3000 rpm, for 45 min, at 4° C. 80 μl of supernatant were transferred into a conical bottom 96 well glass coated plate. 40 μl of water were added prior to analysis for prodrug derivative and active species by LC-MS/MS. This assay was performed by a contract research organisation, Cyprotex Discovery Limited, UK, at the request of the inventors at Leicester.
(1) The active compound was quantified using a 6 point calibration curve prepared in deactivated mouse and human plasma. (2) The percentage of parent compound remaining at each time point relative to 0 min sample was calculated from LC-MS/MS peak area ratios (compound peak area/internal standard peak area). This percentage was then used to determine the concentration of the parent compound at each time point in reference to the starting concentration (10 μM) at time 0 min.

[2] = IC50, inhibition of pneumolysin-induced haemolysis of sheep erythrocytes
[3] = inhibition of pneumolysin-induced haemolysis of sheep erythrocytes, read-out: IC50

pneumolysin, sequence (Q04IN8 whole entry): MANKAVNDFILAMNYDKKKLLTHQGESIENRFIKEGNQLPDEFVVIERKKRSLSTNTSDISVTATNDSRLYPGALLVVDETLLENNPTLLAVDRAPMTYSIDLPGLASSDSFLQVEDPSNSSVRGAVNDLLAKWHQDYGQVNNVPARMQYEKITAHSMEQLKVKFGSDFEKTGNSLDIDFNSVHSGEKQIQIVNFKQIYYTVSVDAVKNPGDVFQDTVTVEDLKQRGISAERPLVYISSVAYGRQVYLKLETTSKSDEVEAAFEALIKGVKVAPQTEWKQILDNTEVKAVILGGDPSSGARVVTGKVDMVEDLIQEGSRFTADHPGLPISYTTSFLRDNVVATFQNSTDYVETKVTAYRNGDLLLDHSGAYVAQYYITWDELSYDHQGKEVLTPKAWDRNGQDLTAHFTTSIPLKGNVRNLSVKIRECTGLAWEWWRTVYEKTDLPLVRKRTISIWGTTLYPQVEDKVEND

Row | SMILES | IC50 (pneumolysin; [2]) [µM] | [ ] (μM) t0 min. Prodrug [1] [µM] | [ ] (μM) t15 min. Prodrug [1] [µM] | [ ] (μM) t30 min. Prodrug [1] [µM] | [ ] (μM) t60 min. Prodrug [1] [µM] | [ ] (μM) t120 min. Prodrug [1] [µM] | IC50 (pneumolysin; [3]) [µM] | IC50 (pneumolysin; inhibition of pneumolysin-induced haemolysis of sheep erythrocytes) [µM]
1 | CCOC(=O)c1c(OC(C)=O)c(OC(C)=O)c(C(=O)N(C)C)n1-c1ccc(OC)cc1 [UL1-044, 2-(dimethylcarbamoyl)-5-(ethoxycarbonyl)-1-(4-methoxyphenyl)-1H-pyrrole-3,4-diyl diacetate] | < 10 | 10 | 0 | 0 | 0 | 0 | – | –
2 | CCOC(=O)c1c(OC(=O)N(C)C)c(OC(=O)N(C)C)c(C(=O)N(C)C)n1-c1ccc(OC)cc1 [UL1-063, ethyl 5-(dimethylcarbamoyl)-3,4-bis((dimethylcarbamoyl)oxy)-1-(4-methoxyphenyl)-1H-pyrrole-2-carboxylate] | – | 10 | 10 | 9.20 | 9.40 | 8.50 | > 60 | –
3 | CCOC(=O)c1c(OC(=O)N2CCN(C)CC2)c(OC(=O)N2CCN(C)CC2)c(C(=O)N(C)C)n1-c1ccc(OC)cc1 [UL1-064, 2-(dimethylcarbamoyl)-5-(ethoxycarbonyl)-1-(4-methoxyphenyl)-1H-pyrrole-3,4-diyl bis(4-methylpiperazine-1-carboxylate)] | – | 10 | 3.10 | 7.00 | 5.00 | 2.20 | > 60 | –
4 | CCOC(=O)c1c(OC(=O)N2CCC(N3CCCCC3)CC2)c(OC(=O)N2CCC(N3CCCCC3)CC2)c(C(=O)N(C)C)n1-c1ccc(OC)cc1 [UL1-065, 2-(dimethylcarbamoyl)-5-(ethoxycarbonyl)-1-(4-methoxyphenyl)-1H-pyrrole-3,4-diyl bis([1,4′-bipiperidine]-1′-carboxylate)] | – | 10 | 4.21 | 3.72 | 2.57 | 1.14 | > 60 | –
5 | CCOC(=O)c1c(O)c(OC(=O)N(C)C)c(C(=O)N(C)C)n1-c1ccc(OC)cc1 [UL1-066, ethyl 5-(dimethylcarbamoyl)-4-((dimethylcarbamoyl)oxy)-3-hydroxy-1-(4-methoxyphenyl)-1H-pyrrole-2-carboxylate] | – | 10 | 9.90 | 10.00 | 9.78 | 9.50 | < 10 | –
6 | CCOC(=O)c1c(OC(=O)C(C)C)c(OC(=O)C(C)C)c(C(=O)N(C)C)n1-c1ccc(OC)cc1 [UL1-067, 2-(dimethylcarbamoyl)-5-(ethoxycarbonyl)-1-(4-methoxyphenyl)-1H-pyrrole-3,4-diyl bis(2-methylpropanoate)] | 20 to 60 | 10 | 0 | 0 | 0 | 0 | – | –
7 | CCOC(=O)c1c(OC(=O)C(C)(C)C)c(OC(=O)C(C)(C)C)c(C(=O)N(C)C)n1-c1ccc(OC)cc1 [UL1-068, 2-(dimethylcarbamoyl)-5-(ethoxycarbonyl)-1-(4-methoxyphenyl)-1H-pyrrole-3,4-diyl bis(2,2-dimethylpropanoate)] | – | 10 | 3.02 | 1.00 | 0.136 | 0 | – | > 60
8 | CCOC(=O)c1c(O)c(OS(N)(=O)=O)c(C(=O)N(C)C)n1-c1ccc(OC)cc1 [UL1-069, ethyl 5-(dimethylcarbamoyl)-3-hydroxy-1-(4-methoxyphenyl)-4-(sulfamoyloxy)-1H-pyrrole-2-carboxylate] | < 10 | 10 | 9.90 | 9.70 | 9.60 | 9.90 | – | –
9 | CCOC(=O)c1c(O)c(OC(=O)N2CCC(N3CCCCC3)CC2)c(C(=O)N(C)C)n1-c1ccc(OC)cc1 [UL1-071, 2-(dimethylcarbamoyl)-5-(ethoxycarbonyl)-4-hydroxy-1-(4-methoxyphenyl)-1H-pyrrol-3-yl [1,4′-bipiperidine]-1′-carboxylate] | – | 10 | 9.50 | 9.00 | 8.72 | 7.39 | 20 to 60 | –
10 | CCOC(=O)c1c(OP(=O)(OCC)OCC)c(OP(=O)(OCC)OCC)c(C(=O)N(C)C)n1-c1ccc(OC)cc1 [UL1-092, ethyl 3,4-bis((diethoxyphosphoryl)oxy)-5-(dimethylcarbamoyl)-1-(4-methoxyphenyl)-1H-pyrrole-2-carboxylate] | – | 10 | 5.12 | 4.67 | 4.59 | 3.70 | > 60 | –
11 | CCOC(=O)c1c(O)c(OCC(=O)OC(C)(C)C)c(C(=O)OCC)n1-c1ccc(F)cc1 [UL2-027, diethyl 3-(2-(tert-butoxy)-2-oxoethoxy)-1-(4-fluorophenyl)-4-hydroxy-1H-pyrrole-2,5-dicarboxylate] | 10 to 20 | – | – | – | – | – | – | –
12 | CCOC(=O)c1c(OCC(=O)OC(C)(C)C)c(OCc2ccccc2)c(C(=O)OCC)n1-c1ccc(OC)cc1 [UL2-028, diethyl 3-(benzyloxy)-4-(2-(tert-butoxy)-2-oxoethoxy)-1-(4-methoxyphenyl)-1H-pyrrole-2,5-dicarboxylate] | 20 to 60 | – | – | – | – | – | – | –
13 | CCOC(=O)c1c(O)c(OCC(N)=O)c(C(=O)OCC)n1-c1ccc(F)cc1 [UL2-029, diethyl 3-(2-amino-2-oxoethoxy)-1-(4-fluorophenyl)-4-hydroxy-1H-pyrrole-2,5-dicarboxylate] | 20 to 60 | – | – | – | – | – | – | –
14 | CCOC(=O)c1c(O)c(OCC(=O)OC(C)(C)C)c(C(=O)OCC)n1-c1ccc(OC)cc1 [UL2-030, diethyl 3-(2-(tert-butoxy)-2-oxoethoxy)-4-hydroxy-1-(4-methoxyphenyl)-1H-pyrrole-2,5-dicarboxylate] | 10 to 20 | – | – | – | – | – | – | –
15 | CCOC(=O)c1c(O)c(OCC(N)=O)c(C(=O)OCC)n1-c1ccc(OC)cc1 [UL2-031, diethyl 3-(2-amino-2-oxoethoxy)-4-hydroxy-1-(4-methoxyphenyl)-1H-pyrrole-2,5-dicarboxylate] | 20 to 60 | – | – | – | – | – | – | –
16 | CCOC(=O)c1c(O)c(O)c(C(=O)OCC)n1-c1ccc(C(C)(C)C)cc1 [UL2-032, diethyl 1-(4-(tert-butyl)phenyl)-3,4-dihydroxy-1H-pyrrole-2,5-dicarboxylate] | < 10 | – | – | – | – | – | – | –
17 | CCOC(=O)c1c(O)c(O)c(C(=O)OCC)n1-c1ccc(OC)c(I)c1 [UL2-033, diethyl 3,4-dihydroxy-1-(3-iodo-4-methoxyphenyl)-1H-pyrrole-2,5-dicarboxylate] | < 10 | – | – | – | – | – | – | –
18 | CCOC(=O)c1c(O)c(O)c(C(=O)OCC)n1-c1ccc(OCCOC)cc1 [UL2-034, diethyl 3,4-dihydroxy-1-(4-(2-methoxyethoxy)phenyl)-1H-pyrrole-2,5-dicarboxylate] | < 10 | – | – | – | – | – | – | –
19 | CCOC(=O)c1c(O)c(O)c(C(=O)OCC)n1-c1ccc(OCCOCCOCCOC)cc1 [UL2-035, diethyl 3,4-dihydroxy-1-(4-(2-(2-(2-methoxyethoxy)ethoxy)ethoxy)phenyl)-1H-pyrrole-2,5-dicarboxylate] | < 10 | – | – | – | – | – | – | –
20 | CCOC(=O)c1c(O)c(O)c(C(=O)OCC)n1-c1ccc(OCCOCCOCCOCCOC)cc1 [UL2-036, diethyl 1-(4-(2,5,8,11-tetraoxatridecan-13-yloxy)phenyl)-3,4-dihydroxy-1H-pyrrole-2,5-dicarboxylate] | < 10 | – | – | – | – | – | – | –
21 | CCOC(=O)c1c(O)c(O)c(C(=O)OCC)n1-c1ccc(OCCCN2CCOCC2)cc1 [UL2-037, diethyl 3,4-dihydroxy-1-(4-(3-morpholinopropoxy)phenyl)-1H-pyrrole-2,5-dicarboxylate] | < 10 | – | – | – | – | – | – | –
22 | CCOC(=O)c1c(O)c(O)c(C(=O)OCC)n1-c1ccc(OCc2ccc(OC)cc2)cc1 [UL2-038, diethyl 3,4-dihydroxy-1-(4-((4-methoxybenzyl)oxy)phenyl)-1H-pyrrole-2,5-dicarboxylate] | < 10 | – | – | – | – | – | – | –
23 | CN(C)C(=O)c1c(O)c(O)c(C(=O)N(C)C)n1-c1ccc(F)cc1 [ULI-008, 1-(4-fluorophenyl)-3,4-dihydroxy-N^2,N^2,N^5,N^5-tetramethyl-1H-pyrrole-2,5-dicarboxamide] | < 10 | – | – | – | – | – | – | –
